Entries after “also recorded” stand apart in the source; their conditions may differ.
What was measured:
C57BL/6N mice = assay: Elevated plus maze after bilateral NPS injection into CA1 of the VH; format: in vivo, mouse; details: 0.1 nmol NPS each side into CA1 of VH, 30 min
Protocol: Animals were fixed in a stereotactic frame and maintained under isoflurane anesthesia (Forene® 100%, V/V; induction: 2.5%; maintenance: 1.5%; in O2; flow rate: 1 L/min). The mice received acute analgesic treatment with Metacam s.c. during surgery (0.5 mg/kg; in NaCl). 23 gauge stainless-steel guide cannulas were implanted in the CA1 region of the VH at the following coordinates: 3.1 mm posterior, ±3 mm lateral from bregma, and 2 mm ventral from the skull surface (Franklin and Paxinos, 2007). The guide cannulas were fixed with two screws and a two-component adhesive. For behavioural experiments, animals were implanted bilaterally for later bilateral injection, whereas for Cy3-NPS injections, implantation was performed unilaterally. The animals were allowed to recover for at least 6 days before starting the behavioural experiments. Substance infusions were carried out manually, on mice anesthetised by brief inhalation of isoflurane, using a 30 gauge injection cannula connected to a Tygon tube and a 10 μL Hamilton syringe. After infusion, the injection cannula was kept in place for additional 30 s to prevent substance outflow.
Mice were injected bilaterally either with 0.1 nmol NPS in 0.5 μL ACSF for each side or with 0.5 μL of ACSF for each side. 30 min after injection, three behavioural assays [open field, dark-light test, and elevated plus maze (EPM)] were performed sequentially in the order mentioned. Each test lasted 5 min, with a 5 min break in between, as described in Kromer et al., 2005 and Bunck et al., 2009. Animal behaviour was videotaped and relevant parameters were analysed using the tracking software ANY-maze version 4.30 (Stoelting, Wood Dale, Ill., USA). Mice were sacrificed 24 h after completion of behavioural assays and the locations of the guide cannulas were checked in histological cryosections of 40 μm counterstained with DAPI. Mice with deviating injection sites were excluded from further analysis.

[1] = system: evoked neuronal activity flow from the dentate gyrus to area CA1; assay: Voltage-sensitive dye imaging (VSDI) in VH slices; parameters: species or system mouse; details: bath application of NPS 1 μM
Protocol: According to Maggio and Segal (2007) and Fanselow and Dong (2010), VSDI experiments were conducted in the VH. Horizontal brain slices (350 μm-thick) were prepared as described in Refojo et al., 2011 and/or von Wolff et al., 2011). Only the first two slices from the ventral surface of the brain in which the CA1 region was clearly visible were used for the measurements. Staining of slices with the voltage-sensitive dye Di-4-ANEPPS and VSDI were carried out at room temperature (23-25° C.). For staining, slices were kept for 15 min in carbogenated (95% O2/5% CO2) ACSF containing Di-4-ANEPPS (7.5 μg/mL; <0.1% DMSO). The ACSF (pH 7.4) consisted of (in mM): 125 NaCl, 2.5 KCl, 25 NaHCO3, 1.25 NaH2PO4, 2 CaCl2, 1 MgCl2, and 25 glucose. Afterwards, slices were stored for at least 30 min in pure carbogenated ACSF. In the recording chamber, slices were continuously superfused with carbogenated ACSF (3 mL/min flow rate). VSDI and data analysis were performed using the MiCAM02 hard- and software package (BrainVision, Tokyo, Japan). The tandem-lens fluorescence microscope was equipped with the MiCAM02-HR camera and the 2× and 1× lens at the objective and condensing side, respectively. Acquisition settings were: 88×60 pixels frame size, 36.4×40.0 μm pixel size, and 2.2 ms sampling time. To reduce noise, four acquisitions subsequently recorded at intervals of 5 s were averaged. Neuronal activity was evoked by square pulse electrical stimuli (200 μs, 15-20 V) delivered to the dentate gyrus granule cell layer via a custom-made monopolar tungsten electrode (Teflon-insulated to the tip of 75 μm diameter). From recorded signals, the fractional change in fluorescence (ΔF/F) was calculated. For all quantifications, ΔF/F values were spatially and temporally smoothed using a 3×3×3 average filter. VSDI signals presented in images were smoothed with a 5×5×3 average filter. Pixelation of images was reduced by the interpolation function of the MiCAM02 software. […]

Substance: neuropeptide S (SFRNGVGSGVKKTSFRRAKQ; Neuropeptide S; UniProt P0C0P7 70-89, looked up) [NPS, peptide agonist of neuropeptide S receptor (NPSR); native NPS, rat, from Bachem]
- anxiety-related behaviour on the EPM (C57BL/6N mice): significant anxiolytic effect; also recorded: decreased anxiety-related behaviour
- increase in the percentage of time spent on the open arms compared to vehicle-treated mice (C57BL/6N mice): 28%
- locomotion on the EPM (C57BL/6N mice): did not affect locomotion; also recorded: without affecting locomotion
- activity flow from the dentate gyrus to the CA1 subfield [1]: rapidly weakened
- FDS peak amplitudes ([1]; dentate hilus, CA3 region, area CA1): reduced the amplitude of FDSs in the dentate hilus, the CA3 region, and area CA1; also recorded: decreased FDS peak amplitudes

Reference: patent US20160279204A1, “PEPTIDES AND PHARMACEUTICAL COMPOSITIONS FOR USE IN THE TREATMENT BY NASAL ADMINISTRATION OF PATIENTS SUFFERING FROM ANXIETY AND SLEEP DISORDERS” (MAX-PLANCK-GESELLSCHAFT ZUR FÖRDERUNG DER WISSENSCHAFT E.V., priority 2011, published 2016)
